In brackets after ≈: the same amount, converted by molar mass. Read-outs that look alike come from different tables or passages of the source. Marks after values point to notes of the source that are not given here. Where no end group is shown, it is not given here.
Legend:
[1] = system: E. coli ML-35p; assay: microbe, parasite or virus in culture; format: cell-based, Escherichia coli; settings: median of 3–6 experiments, value in square brackets = twice the maximal tested concentration, read-out: MIC
[2] = system: A. baumannii 7226/16; assay: microbe, parasite or virus in culture; format: cell-based; settings: Acinetobacter baumannii; A. baumannii 7226/16, drug-resistant clinical isolate
Protocol: (§1) Prior to the “checkerboard” synergy test the minimal inhibitory concentrations (MIC) of individual substances were determined using broth microdilution assay. Testing was performed in 60-well polystyrene Terasaki microplates with V-shaped bottom generally according to the guidelines of the European Committee for Antimicrobial Susceptibility Testing with subtle modifications designed for AMP testing (Tossi et al., [1997]; Wiegand et al., [2008]). Cultivation of bacteria was carried out in 2.1% Müller-Hinton broth at 37°C with shaking. Two-fold serial dilutions of peptides, antibiotics and other antimicrobials were made with 10 mM sodium phosphate buffer, pH 7.4, containing 0.1% of BSA. The plates were preliminary incubated with 0.1% BSA for 1 h at 37°C to reduce a non-specific binding of peptides to the plates. After that BSA was removed, and serial dilutions were added into the plate wells in triplicates followed by the same volume of the suspension of bacterial cells in logarithmic phase of growth in concentration of 1 × 10^6 CFU/ml. After the 18 h overnight incubation at 37°C, the MIC value for each compound was determined as its lowest concentration completely inhibiting the visible growth of bacteria. The final results were calculated as median values based on 3–6 independent experiments.

[3] = system: E. coli ESBL 521/17; assay: microbe, parasite or virus in culture; format: cell-based; settings: Escherichia coli, ESBL521/17; E. coli ESBL 521/17, drug-resistant clinical isolate; square brackets = twice the maximal tested concentration
Protocol: as §1

[4] = system: K. pneumoniae ESBL 344/17; assay: microbe, parasite or virus in culture; format: cell-based; settings: Klebsiella pneumoniae, ESBL344/17; K. pneumoniae ESBL 344/17, drug-resistant clinical isolate
Protocol: as §1

[5] = system: P. aeruginosa MDR 522/17; assay: microbe, parasite or virus in culture; format: cell-based; settings: Pseudomonas aeruginosa, MDR522/17; P. aeruginosa MDR 522/17, drug-resistant clinical isolate
Protocol: as §1

[6] = system: S. aureus 1399/17; assay: microbe, parasite or virus in culture; format: cell-based; settings: Staphylococcus aureus; S. aureus 1399/17, drug-resistant clinical isolate; read-out: MIC
Protocol: as §1

[7] = system: E. coli ESBL 521/17; assay: Checkerboard titration (FICI); format: cell-based, Escherichia coli
Protocol: (§2) The combined antimicrobial action of AMPs and other antimicrobial compounds was assessed using checkerboard titration approach under the conditions similar to that of the microdilution assay. According to checkerboard titration template, one component (A) of the combination was diluted along the rows of the plate, while the other (B) was diluted down the columns, thereby creating the variety of mixtures with different concentrations of tested compounds. 2.5 μl of corresponding solutions of the components A and B were added into each well of the plate. Into the first column and the last row the same amount of 10 mM sodium phosphate buffer, pH 7.4, containing 0.1% of BSA was introduced instead of the second component. Thus, all wells contained 5 μl of antimicrobial compounds solutions (solo or in combination). The same volume of bacterial suspension, prepared as described for microdilution assay, was added into each well. The results were recorded after the overnight incubation, visually indicating the presence or absence of the microbial growth in the corresponding wells. Based on the obtained data the isobolograms of combined action were plotted and/or Fractional Inhibitory Concentration Indices (FICI) were calculated. […] Depending on the minimal value of the FICI the combined effect of the combination was classified as antagonism (FICI > 2), independent action (1 < FICI ≤ 2), additivity (0.5 < FICI ≤ 1) or synergy (FICI ≤ 0.5), as is recommended in the literature and due to some drawbacks of the serial dilution method (Hsieh et al., [1993]; Orhan et al., [2005]; Fehri et al., [2007]). FICIs were assessed in 3–6 independent experiments and median values were used to define the nature of interaction.

[8] = system: A. baumannii 7226/16; assay: Checkerboard titration (FICI); format: cell-based, Acinetobacter baumannii
Protocol: as §2

[9] = system: P. aeruginosa MDR 522/17; assay: Checkerboard titration (FICI); format: cell-based, Pseudomonas aeruginosa
Protocol: as §2

[10] = system: K. pneumoniae ESBL 344/17; assay: Checkerboard titration (FICI); format: cell-based, Klebsiella pneumoniae
Protocol: as §2

[11] = system: S. aureus 1399/17; assay: Checkerboard titration (FICI); format: cell-based, Staphylococcus aureus
Protocol: as §2

[12] = system: E. coli ML-35p; assay: Bacterial membrane permeabilization assay, inner membrane (ONPG); format: cell-based, Escherichia coli; settings: ONPG marker; for effect on cytoplasmic membrane permeability, substance alone (in words): ¼ MIC
Text: The method is based on the certain features of the specifically designed E. coli ML-35p bacterial strain. As its parental strain E. coli ML-35, this bacterium constitutively expresses cytoplasmic β-galactosidase, but is unable to transport β-galactoside containing substrates through the inner membrane in normal circumstances due to the lack of lactose permease. […] If the cytoplasmic membrane of the bacterium is damaged, the chromogenic marker o-nitrophenyl-β-D-galactoside (ONPG) penetrates into the cell and, when digested by bacterial β-galactosidase, produces a colored product o-nitrophenol. The accumulation of the latter can be spectrophotometrically detected at a wavelength of 420 nm.
Escherichia coli ML-35p was cultivated in the sterile 3% Trypticase soy broth (TSB) for 18 h at 37°C, then washed three times with 10 mM sodium phosphate buffer, pH 7.4 (10 min centrifugation at 600 g and 4°C), diluted up to the OD of 0.4 at 620 nm (1 × 10^8 CFU/ml concentration), and used immediately or kept on ice until the start of the test. […] Controls contained equivalent volume of acidified water instead of antimicrobial agent(s). The assay was started by adding the bacteria and was run at 37°C, with periodical shaking. Optical density (OD) measurement at 420 nm was performed every minute for 1–2 h using SpectraMax 250 Microplate Spectrophotometer (Molecular Devices, USA) and its SoftMax PRO software.
(A) Permeability of the inner membrane for a chromogenic marker o-nitrophenyl-β-D-galactoside (ONPG). ¼ of minimal inhibitory concentrations (MICs) of antimicrobial peptides (AMPs) and antibiotics were used when alone, and ¼ MIC of AMP + ¼ MIC of antibiotic when in combination. Curves illustrate ONPG degradation by the cytoplasmic β-galactosidase of bacteria, when the membranes are damaged by test substances. Curves slope and the time of their rising to the plateau correspond to the extent of this damage. […] Nitrocefin is a substrate for the periplasmic β-lactamase of the bacteria. RIF, rifampicin; PMB, polymyxin B; GEN, gentamicin; OFL, ofloxacin; OX, oxacillin.

[13] = antibiotic in combination with ChBac3.4
[14] = antibiotic in combination with PG-1

CO[C@H]1/C=C/O[C@@]2(C)Oc3c(C)c(O)c4c(O)c(c(/C=N/N5CCN(C)CC5)c(O)c4c3C2=O)NC(=O)/C(C)=C\C=C\[C@H](C)[C@H](O)[C@@H](C)[C@@H](O)[C@@H](C)[C@H](OC(C)=O)[C@@H]1C [Rifampicin] gave an MIC ([1]; Escherichia coli, ML35P) of 10 µM (≈ 8.23 µg/mL).
CC1COc2c(N3CCN(C)CC3)c(F)cc3c(=O)c(C(=O)O)cn1c23 (stereo not shown) [Ofloxacin] gave an MIC ([1]; Escherichia coli, ML35P) of 0.125 µM (≈ 0.0452 µg/mL), an MIC [2] of 25 µM and an MIC [3] of 50 µM. The MIC [4] was 0.25 µM, the MIC [5] was greater than 50 µM and the MIC [6] was greater than 50 µM. The “Minimal FICI” value [7, 13] was 0.75, the “Minimal FICI” value [7, 14] was 0.75 and the “Minimal FICI” value [8, 13] was 0.5^*. The “Minimal FICI” value [8, 14] was 0.62, the “Minimal FICI” value [9, 13] was 0.75 and the “Minimal FICI” value [9, 14] was 1.12. For the same molecule, the “Minimal FICI” value [10, 13] was 0.75, the “Minimal FICI” value [10, 14] was 0.5 and the “Minimal FICI” value [11, 13] was 0.125^*. For the same molecule, the “Minimal FICI” value [11, 14] was 0.56.
With “RFRLPFRRPPIRIHPPPFYPPFRRFL-NH2 (C-terminus assumed) [ChBac3.4]” the “development of membrane-damaging effect in combination with rifampicin (in words)” value ([12]; ¼ MIC + ¼ MIC rifampicin) was “slight acceleration” and the “effect on cytoplasmic membrane permeability, substance alone (in words)” value (from here on “effect … substance alone (in words)”) [12] was “no substantial effect”.
CC[C@H](C)[C@H](NC(=O)[C@H](CCCCN)NC(=O)[C@H](CCC(=O)O)NC(=O)[C@H](CCCCN)NC(=O)[C@H](CO)NC(=O)[C@H](CCCCN)NC(=O)[C@H](CCCNC(=N)N)NC(=O)[C@H](Cc1ccccc1)NC(=O)[C@H](Cc1ccccc1)NC(=O)[C@H](CC(=O)O)NC(=O)CNC(=O)[C@H](CC(C)C)NC(=O)[C@@H](N)CC(C)C)C(=O)NCC(=O)N[C@@H](CCCCN)C(=O)N[C@@H](CCC(=O)O)C(=O)N[C@@H](Cc1ccccc1)C(=O)N[C@@H](CCCCN)C(=O)N[C@@H](CCCNC(=N)N)C(=O)N[C@H](C(=O)N[C@H](C(=O)N[C@@H](CCC(N)=O)C(=O)N[C@@H](CCCNC(=N)N)C(=O)N[C@H](C(=O)N[C@@H](CCCCN)C(=O)N[C@@H](CC(=O)O)C(=O)N[C@@H](Cc1ccccc1)C(=O)N[C@@H](CC(C)C)C(=O)N[C@@H](CCCNC(=N)N)C(=O)N[C@@H](CC(N)=O)C(=O)N[C@@H](CC(C)C)C(=O)N[C@H](C(=O)N1CCC[C@H]1C(=O)N[C@@H](CCCNC(=N)N)C(=O)N[C@H](C(=O)N[C@@H](CCC(=O)O)C(=O)N[C@@H](CO)C(=O)O)[C@@H](C)O)C(C)C)[C@@H](C)CC)C(C)C)[C@@H](C)CC [LL-37] was tested, and the “effect on cytoplasmic membrane permeability in presence of gentamicin vs peptide/protein alone (in words)” value ([12]; ¼ MIC + ¼ MIC gentamicin) was “developing rather quickly” and the “effect … substance alone (in words)” value [12] was “quite slow enhance of the membrane permeability”.
CNC(C)C1CCC(N)C(OC2C(N)CC(N)C(OC3OCC(C)(O)C(NC)C3O)C2O)O1 (stereo not shown) [Gentamicin] was tested, and the MIC ([1]; Escherichia coli, ML35P) was 0.625 µM (≈ 0.299 µg/mL) and the “effect … substance alone (in words)” value [12] was “no substantial increase”.
Polymyxin B gave an MIC [1] of 0.4 µM.
Cc1onc(-c2ccccc2)c1C(=O)N[C@@H]1C(=O)N2[C@@H]1SC(C)(C)[C@@H]2C(=O)O [Oxacillin] was tested, and the MIC ([1]; Escherichia coli, ML35P) was greater than 250 µM, the MIC [2] was greater than 50 µM and the MIC [3] was greater than 50 µM. For the same molecule, the MIC [4] was greater than 50 µM, the MIC [5] was greater than 50 µM and the MIC [6] was greater than 50 µM. For the same molecule, the “Minimal FICI” value [7, 13] was 1.12, the “Minimal FICI” value [7, 14] was 1.12 and the “Minimal FICI” value [8, 13] was 1.12. For the same molecule, the “Minimal FICI” value [8, 14] was 0.75, the “Minimal FICI” value [9, 13] was 1.12 and the “Minimal FICI” value [9, 14] was 1.12. The “Minimal FICI” value [10, 13] was 1.12, the “Minimal FICI” value [10, 14] was 1.12 and the “Minimal FICI” value [11, 13] was 0.25^*. For the same molecule, the “Minimal FICI” value [11, 14] was 1.12.

Source: article PMC6503114, “Application of Antimicrobial Peptides of the Innate Immune System in Combination With Conventional Antibiotics—A Novel Way to Combat Antibiotic Resistance?” (Frontiers in Cellular and Infection Microbiology, 2019)
